Columns and labels:
SU-DHL-6 [1] = test: Antiproliferative activity against human SU-DHL-6 cells assessed as cell growth inhibition measured after 72 hrs by MTT assay; type: functional, cell-based; settings: SU-DHL-6, 72 h
[2] = target: T1, Phosphatidylinositol 4,5-bisphosphate 3-kinase catalytic subunit delta isoform (Homo sapiens, UniProt O00329); test: Inhibition of N-terminal His6-tagged recombinant full length human PI3Kdelta expressed in baculovirus infected Sf21 insect cells incubated for 30 mins by HTRF assay
T1 sequence (O00329 whole entry): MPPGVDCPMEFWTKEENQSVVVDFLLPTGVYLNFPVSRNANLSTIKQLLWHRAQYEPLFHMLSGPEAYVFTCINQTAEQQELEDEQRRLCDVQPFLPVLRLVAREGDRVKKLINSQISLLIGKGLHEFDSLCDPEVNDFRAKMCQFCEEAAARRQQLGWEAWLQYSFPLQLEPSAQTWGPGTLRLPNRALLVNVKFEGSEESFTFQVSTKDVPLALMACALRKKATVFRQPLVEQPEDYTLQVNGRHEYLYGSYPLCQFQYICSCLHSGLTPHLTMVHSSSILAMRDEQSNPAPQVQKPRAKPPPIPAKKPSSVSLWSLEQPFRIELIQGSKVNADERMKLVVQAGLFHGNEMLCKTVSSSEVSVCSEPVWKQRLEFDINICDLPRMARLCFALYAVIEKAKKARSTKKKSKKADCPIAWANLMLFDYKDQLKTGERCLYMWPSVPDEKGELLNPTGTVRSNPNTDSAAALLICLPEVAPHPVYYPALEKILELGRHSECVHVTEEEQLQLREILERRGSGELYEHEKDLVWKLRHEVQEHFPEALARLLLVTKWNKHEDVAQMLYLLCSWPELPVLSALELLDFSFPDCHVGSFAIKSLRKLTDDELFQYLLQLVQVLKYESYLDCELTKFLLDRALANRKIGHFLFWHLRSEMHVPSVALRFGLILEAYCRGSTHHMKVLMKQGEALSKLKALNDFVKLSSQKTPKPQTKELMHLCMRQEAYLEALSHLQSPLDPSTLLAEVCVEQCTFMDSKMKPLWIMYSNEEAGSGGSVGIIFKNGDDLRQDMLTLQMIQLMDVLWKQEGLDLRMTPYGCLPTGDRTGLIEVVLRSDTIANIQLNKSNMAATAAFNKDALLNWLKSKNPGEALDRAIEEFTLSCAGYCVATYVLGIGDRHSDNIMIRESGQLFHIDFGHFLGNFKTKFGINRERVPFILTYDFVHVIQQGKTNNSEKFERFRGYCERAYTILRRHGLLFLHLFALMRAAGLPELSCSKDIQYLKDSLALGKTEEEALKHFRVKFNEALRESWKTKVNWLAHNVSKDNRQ

SUD4 = test: Antiproliferative activity against human SU-DHL-4 cells assessed as cell growth inhibition measured after 72 hrs by MTT assay; type: functional, cell-based; settings: SU-DHL-4, 72 h
[3] = target: T2, Phosphatidylinositol 4,5-bisphosphate 3-kinase catalytic subunit alpha isoform (Homo sapiens, UniProt P42336); test: Inhibition of N-terminal His6-tagged recombinant full length human PI3Kalpha expressed in baculovirus infected Sf21 insect cells incubated for 30 mins by HTRF assay
[4] = target: T3, Phosphatidylinositol 4,5-bisphosphate 3-kinase catalytic subunit beta isoform (Homo sapiens, UniProt P42338); test: Inhibition of N-terminal His6-tagged recombinant full length human PI3Kbeta expressed in baculovirus infected Sf21 insect cells incubated for 30 mins by HTRF assay
Target sequence in this assay (P42338 whole entry, canonical isoform): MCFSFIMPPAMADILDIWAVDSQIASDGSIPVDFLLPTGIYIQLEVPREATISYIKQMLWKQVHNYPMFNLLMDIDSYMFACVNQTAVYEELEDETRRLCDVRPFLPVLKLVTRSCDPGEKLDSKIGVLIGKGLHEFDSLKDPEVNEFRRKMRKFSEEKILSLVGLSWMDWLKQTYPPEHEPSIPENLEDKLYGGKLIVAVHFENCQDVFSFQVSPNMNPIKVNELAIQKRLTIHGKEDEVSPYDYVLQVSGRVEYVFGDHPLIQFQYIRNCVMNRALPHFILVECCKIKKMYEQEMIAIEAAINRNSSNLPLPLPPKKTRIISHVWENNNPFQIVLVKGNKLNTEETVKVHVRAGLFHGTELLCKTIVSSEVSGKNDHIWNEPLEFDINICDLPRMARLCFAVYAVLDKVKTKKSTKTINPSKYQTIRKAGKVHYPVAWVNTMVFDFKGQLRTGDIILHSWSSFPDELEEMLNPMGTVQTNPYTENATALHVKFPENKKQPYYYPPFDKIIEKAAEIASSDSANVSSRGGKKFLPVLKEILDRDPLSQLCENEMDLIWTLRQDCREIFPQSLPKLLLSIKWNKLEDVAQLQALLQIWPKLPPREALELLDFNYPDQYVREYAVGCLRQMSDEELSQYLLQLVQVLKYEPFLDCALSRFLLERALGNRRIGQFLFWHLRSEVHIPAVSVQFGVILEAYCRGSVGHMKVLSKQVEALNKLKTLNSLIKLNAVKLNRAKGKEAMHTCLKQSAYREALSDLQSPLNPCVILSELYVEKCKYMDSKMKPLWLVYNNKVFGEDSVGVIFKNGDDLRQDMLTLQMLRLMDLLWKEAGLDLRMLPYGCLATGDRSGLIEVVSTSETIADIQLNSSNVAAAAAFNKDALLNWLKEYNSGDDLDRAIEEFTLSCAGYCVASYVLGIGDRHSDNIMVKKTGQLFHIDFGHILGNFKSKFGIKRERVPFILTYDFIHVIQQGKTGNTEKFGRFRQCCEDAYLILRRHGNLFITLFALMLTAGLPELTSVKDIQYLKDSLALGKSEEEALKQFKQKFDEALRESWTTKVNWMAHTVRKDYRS

DOHH-2 [5] = test: Antiproliferative activity against human DOHH-2 cells assessed as cell growth inhibition measured after 72 hrs by MTT assay; type: functional, cell-based; settings: DOHH-2, 72 h
[6] = target: T4, Phosphatidylinositol 4,5-bisphosphate 3-kinase catalytic subunit gamma isoform (Homo sapiens, UniProt P48736); test: Inhibition of N-terminal His6-tagged recombinant full length human PI3Kgamma expressed in baculovirus infected Sf21 insect cells incubated for 30 mins by HTRF assay
Target sequence in this assay (P48736 whole entry, canonical isoform): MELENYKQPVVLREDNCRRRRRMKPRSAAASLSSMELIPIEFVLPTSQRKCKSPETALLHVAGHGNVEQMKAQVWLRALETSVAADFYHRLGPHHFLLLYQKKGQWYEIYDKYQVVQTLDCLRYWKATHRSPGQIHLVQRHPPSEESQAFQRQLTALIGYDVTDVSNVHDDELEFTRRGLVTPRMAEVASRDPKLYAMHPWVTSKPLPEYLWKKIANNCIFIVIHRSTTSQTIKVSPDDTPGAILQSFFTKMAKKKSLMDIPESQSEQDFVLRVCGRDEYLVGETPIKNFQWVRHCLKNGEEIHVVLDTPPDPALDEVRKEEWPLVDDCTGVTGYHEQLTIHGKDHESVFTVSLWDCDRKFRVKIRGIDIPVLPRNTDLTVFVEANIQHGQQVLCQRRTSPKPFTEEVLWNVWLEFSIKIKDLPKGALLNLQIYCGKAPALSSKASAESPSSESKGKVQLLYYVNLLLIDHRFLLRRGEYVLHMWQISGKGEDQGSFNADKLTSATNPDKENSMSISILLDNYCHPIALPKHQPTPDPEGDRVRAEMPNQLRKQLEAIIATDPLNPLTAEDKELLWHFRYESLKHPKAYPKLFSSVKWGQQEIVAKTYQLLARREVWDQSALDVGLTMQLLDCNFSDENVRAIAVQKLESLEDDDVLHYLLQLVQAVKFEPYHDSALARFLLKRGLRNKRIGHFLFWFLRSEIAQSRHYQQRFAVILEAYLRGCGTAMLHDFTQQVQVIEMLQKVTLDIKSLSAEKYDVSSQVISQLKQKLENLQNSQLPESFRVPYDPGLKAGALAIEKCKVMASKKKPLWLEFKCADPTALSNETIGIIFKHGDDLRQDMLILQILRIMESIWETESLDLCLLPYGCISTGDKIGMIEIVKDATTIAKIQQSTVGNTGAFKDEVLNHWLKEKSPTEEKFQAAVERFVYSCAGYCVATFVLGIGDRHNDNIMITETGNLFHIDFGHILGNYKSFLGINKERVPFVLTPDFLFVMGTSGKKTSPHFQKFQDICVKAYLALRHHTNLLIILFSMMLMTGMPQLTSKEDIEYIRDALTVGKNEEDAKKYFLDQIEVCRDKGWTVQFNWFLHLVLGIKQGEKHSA

[7] = target: T5, Phosphatidylinositol 4,5-bisphosphate 3-kinase catalytic subunit delta isoform (Homo sapiens) (UniProt O00329); test: Inhibition of N-terminal His6-tagged recombinant full length human PI3Kdelta expressed in baculovirus infected Sf21 insect cells at 1 uM by HTRF assay relative to control
T5 sequence (whole entry): T1 sequence (O00329 whole entry)

[8] = target: T2, Phosphatidylinositol 4,5-bisphosphate 3-kinase catalytic subunit alpha isoform; test: Inhibition of N-terminal His6-tagged recombinant full length human PI3Kalpha expressed in baculovirus infected Sf21 insect cells at 1 uM by HTRF assay relative to control
[9] = Metabolic stability in human liver microsomes assessed as half life at 1 uM measured upto 60 mins in presence of NADPH; type: ADME, Microsome
[10] = target: T5, Phosphatidylinositol 4,5-bisphosphate 3-kinase catalytic subunit delta isoform (Homo sapiens); test: Inhibition of N-terminal His6-tagged recombinant full length human PI3Kdelta expressed in baculovirus infected Sf21 insect cells at 0.1 uM by HTRF assay relative to control
[11] = Metabolic stability in human liver microsomes assessed as clearance at 1 uM measured upto 60 mins in presence of NADPH by measuring protein; type: ADME, Microsome; settings: 1 h
[12] = target: T3, Phosphatidylinositol 4,5-bisphosphate 3-kinase catalytic subunit beta isoform; test: Inhibition of N-terminal His6-tagged recombinant full length human PI3Kbeta expressed in baculovirus infected Sf21 insect cells at 1 uM by HTRF assay relative to control
Target sequence in this assay (P42338 whole entry, looked up, canonical isoform): as the sequence (P42338 whole entry, canonical isoform) above

[13] = target: T4, Phosphatidylinositol 4,5-bisphosphate 3-kinase catalytic subunit gamma isoform; test: Inhibition of N-terminal His6-tagged recombinant full length human PI3Kgamma expressed in baculovirus infected Sf21 insect cells at 0.1 uM by HTRF assay relative to control
Target sequence in this assay (P48736 whole entry, looked up, canonical isoform): as the sequence (P48736 whole entry, canonical isoform) above

[14] = target: T4, Phosphatidylinositol 4,5-bisphosphate 3-kinase catalytic subunit gamma isoform; test: Inhibition of N-terminal His6-tagged recombinant full length human PI3Kgamma expressed in baculovirus infected Sf21 insect cells at 1 uM by HTRF assay relative to control
Target sequence in this assay (P48736 whole entry, looked up, canonical isoform): as the sequence (P48736 whole entry, canonical isoform) above

[15] = Metabolic stability in human liver microsomes assessed as compound remaining at 1 uM measured upto 60 mins in presence of NADPH; type: ADME, Microsome; settings: read-out: Stability
DOHH-2 [16] = test: Induction of apoptosis in human DOHH-2 cells assessed as early apoptotic cells at 1 uM incubated for 48 hrs by annexin V-FITC and PI staining based flow cytometry analysis (reference value: 2.09 %); type: functional
SU-DHL-6 [17] = test: Induction of apoptosis in human SU-DHL-6 cells assessed as early apoptotic cells at 1.5 uM incubated for 48 hrs by annexin V-FITC and PI staining based flow cytometry analysis (reference value: 8.81 %); type: functional
DOHH-2 [18] = test: Induction of apoptosis in human DOHH-2 cells assessed as late apoptotic cells at 1 uM incubated for 48 hrs by annexin V-FITC and PI staining based flow cytometry analysis (reference value: 2.20 %); type: functional
SU-DHL-6 [19] = test: Induction of cell cycle arrest in human SU-DHL-6 cells assessed as accumulation of cells at G0/G1 phase at 0.5 uM incubated for 24 hrs by PI staining based FACScan flow cytometry analysis (reference value: 55.61 %); type: functional
DOHH-2 [20] = test: Induction of cell cycle arrest in human DOHH-2 cells assessed as accumulation of cells at G2/M phase at 1 uM incubated for 24 hrs by PI staining based flow cytometry analysis (reference value: 21.42 %); type: functional
DOHH-2 [21] = test: Induction of cell cycle arrest in human DOHH-2 cells assessed as accumulation of cells at G0/G1 phase at 1 uM incubated for 24 hrs by PI staining based flow cytometry analysis (reference value: 23.47 %); type: functional
SU-DHL-6 [22] = test: Induction of cell cycle arrest in human SU-DHL-6 cells assessed as accumulation of cells at S phase at 0.5 uM incubated for 24 hrs by PI staining based FACScan flow cytometry analysis (reference value: 24.18 %); type: functional
SU-DHL-6 [23] = test: Induction of apoptosis in human SU-DHL-6 cells assessed as late apoptotic cells at 1.5 uM incubated for 48 hrs by annexin V-FITC and PI staining based flow cytometry analysis (reference value: 3.88 %); type: functional
SU-DHL-6 [24] = test: Induction of apoptosis in human SU-DHL-6 cells assessed as necrotic cells at 1.5 uM incubated for 48 hrs by annexin V-FITC and PI staining based flow cytometry analysis (reference value: 0.32%); type: functional
SU-DHL-6 [25] = test: Induction of cell cycle arrest in human SU-DHL-6 cells assessed as accumulation of cells at G2/M phase at 0.5 uM incubated for 24 hrs by PI staining based FACScan flow cytometry analysis (reference value: 20.21 %); type: functional
DOHH-2 [26] = test: Induction of apoptosis in human DOHH-2 cells assessed as necrotic cells at 1 uM incubated for 48 hrs by annexin V-FITC and PI staining based flow cytometry analysis (Rvb =0.29 %); type: functional
DOHH-2 [27] = test: Induction of apoptosis in human DOHH-2 cells assessed as viable cells at 1 uM incubated for 48 hrs by annexin V-FITC and PI staining based flow cytometry analysis (reference value: 95.4 %); type: functional; settings: read-out: Activity
DOHH-2 [28] = test: Induction of cell cycle arrest in human DOHH-2 cells assessed as accumulation of cells at S phase at 1 uM incubated for 24 hrs by PI staining based flow cytometry analysis (reference value: 55.11 %); type: functional
SU-DHL-6 [29] = test: Induction of apoptosis in human SU-DHL-6 cells assessed as viable cells at 1.5 uM incubated for 48 hrs by annexin V-FITC and PI staining based flow cytometry analysis (reference value: 87.0 %); type: functional; settings: read-out: Activity

T2 sequence (P42336 whole entry, canonical isoform): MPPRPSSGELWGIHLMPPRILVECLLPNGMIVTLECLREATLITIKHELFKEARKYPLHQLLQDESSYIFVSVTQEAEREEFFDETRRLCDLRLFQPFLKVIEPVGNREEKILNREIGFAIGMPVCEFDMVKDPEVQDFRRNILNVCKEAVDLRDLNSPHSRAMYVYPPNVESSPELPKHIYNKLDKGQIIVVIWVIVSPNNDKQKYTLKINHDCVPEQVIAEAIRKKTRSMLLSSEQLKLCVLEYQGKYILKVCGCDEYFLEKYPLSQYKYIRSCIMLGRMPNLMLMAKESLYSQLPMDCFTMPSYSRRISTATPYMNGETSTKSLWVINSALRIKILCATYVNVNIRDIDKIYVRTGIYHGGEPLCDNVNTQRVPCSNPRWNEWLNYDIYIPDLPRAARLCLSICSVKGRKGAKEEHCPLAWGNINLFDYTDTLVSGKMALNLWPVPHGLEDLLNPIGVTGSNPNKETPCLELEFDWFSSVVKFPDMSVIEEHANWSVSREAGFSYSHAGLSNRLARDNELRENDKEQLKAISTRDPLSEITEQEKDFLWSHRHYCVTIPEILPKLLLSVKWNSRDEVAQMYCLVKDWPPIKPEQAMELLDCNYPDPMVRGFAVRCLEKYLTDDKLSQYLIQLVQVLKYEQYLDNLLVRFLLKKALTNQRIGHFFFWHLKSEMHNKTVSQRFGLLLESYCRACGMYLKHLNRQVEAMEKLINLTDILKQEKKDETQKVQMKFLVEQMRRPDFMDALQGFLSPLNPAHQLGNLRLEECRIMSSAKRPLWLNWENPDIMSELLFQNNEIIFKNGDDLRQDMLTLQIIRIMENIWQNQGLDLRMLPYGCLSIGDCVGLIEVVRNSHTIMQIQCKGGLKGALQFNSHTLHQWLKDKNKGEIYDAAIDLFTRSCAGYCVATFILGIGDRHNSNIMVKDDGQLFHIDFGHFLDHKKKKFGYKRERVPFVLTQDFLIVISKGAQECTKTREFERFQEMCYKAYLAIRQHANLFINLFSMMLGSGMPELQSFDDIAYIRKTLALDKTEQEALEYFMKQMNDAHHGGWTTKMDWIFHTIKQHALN

IC50 (SU-DHL-6 [1]) [µM]	IC50 [2] [µM]	IC50 [3] [µM]	IC50 [4] [µM]	IC50 [6] [µM]	SMILES	IC50 (SUD4) [µM]	IC50 (DOHH-2 [5]) [µM]	further results
1.61	28	–	–	280	N#Cc1c(N)nc(N)nc1N1[C@H](c2nc3cccc(Cl)c3c(=O)n2-c2cccc(F)c2)C[C@@H]2CCCC[C@@H]21	1.3	2.8	–
0.11	–	–	–	–	C[C@H]1CC[C@@H](c2nc3cccc(Cl)c3c(=O)n2-c2ccccc2)N1c1nc(N)nc(N)c1C#N	0.12	0.82	inhibition [7]: -1%; inhibition [8]: 13%; half-life at 1 µM [9]: 1.78 h; inhibition [10]: -7%; CLH [11]: 13 mL/min/g; inhibition [12]: 45%; inhibition [13]: 24%; inhibition [14]: -3%; remaining at 1 h, 1 µM [15]: 67.9%
0.11	0.6	22	429	9	COc1cncc(-c2cccc3nc([C@@H]4CC[C@H](C)N4c4nc(N)nc(N)c4C#N)n(-c4cccc(F)c4)c(=O)c23)c1	0.43	0.52	–
0.19	2	258	412	17	C[C@H]1CC[C@@H](c2nc3cccc(Cl)c3c(=O)n2-c2cccc(F)c2)N1c1nc(N)nc(N)c1C#N	0.09	0.5	–

Further lines, the molecule ahead of its results:

SMILES	IC50 (SU-DHL-6 [1]) [µM]	IC50 [2] [µM]	IC50 [3] [µM]	IC50 [4] [µM]	IC50 [6] [µM]	IC50 (SUD4) [µM]	IC50 (DOHH-2 [5]) [µM]	further results
C[C@H]1CC[C@@H](c2nc3c(F)cc(F)cc3c(=O)n2-c2cccnc2)N1c1nc(N)nc(N)c1C#N	0.18	3	374	445	30	0.16	0.47	–
N#Cc1c(N)nc(N)nc1N1[C@H](c2nc3cccc(Cl)c3c(=O)n2N2CCOCC2)C[C@@H]2CCCC[C@@H]21	1.34	41	–	–	312	1.04	3.86	–
C[C@H]1CC[C@@H](c2nc3cccc(Cl)c3c(=O)n2-c2ccccc2)N1c1nc(N)nc2[nH]cnc12	0.25	–	–	–	–	0.18	0.28	inhibition [7]: -2%; inhibition [8]: 78%; half-life at 1 µM [9]: 2.03 h; inhibition [10]: 18%; CLH [11]: 11.4 mL/min/g; inhibition [12]: 31%; inhibition [13]: 30%; remaining at 1 h, 1 µM [15]: 75.5%
C=CC(=O)N1CCC[C@@H](n2nc(-c3ccc(Oc4ccccc4)cc3)c3c(N)ncnc32)C1 [IBRUTINIB]	–	–	–	–	–	–	–	Activity (DOHH-2 [16]): 8.69%; Activity (SU-DHL-6 [17]): 9.9%; Activity (DOHH-2 [18]): 10.7%; Activity (SU-DHL-6 [19]): 58.11%; Activity (DOHH-2 [20]): 13.92%; Activity (DOHH-2 [21]): 46.69%; Activity (SU-DHL-6 [22]): 29.85%; Activity (SU-DHL-6 [23]): 4.62%; Activity (SU-DHL-6 [24]): 0.15%; Activity (SU-DHL-6 [25]): 12.04%; Activity (DOHH-2 [26]): 0.7%; viability at 1 µM (DOHH-2 [27]): 79.9%; Activity (DOHH-2 [28]): 40.49%; viability at 1.5 µM (SU-DHL-6 [29]): 86.1%
N#Cc1c(N)nc(N)nc1N1[C@H](c2nc3cccc(F)c3c(=O)n2-c2cccnc2)C[C@@H]2CCCC[C@@H]21	1.1	42	3120	1550	364	1.12	2.57	–

Reference: ChEMBL document CHEMBL5120922, “Discovery, Optimization, and Evaluation of Potent and Selective PI3Kδ-γ Dual Inhibitors for the Treatment of B-cell Malignancies” (J Med Chem, 2022)
